According to US12139491B2, “Diketopiperazine derivatives as calcium ATPase inhibitor for enhancing anticancer activity” (HOLOSMEDIC, priority 2018, dated 2024):

Columns and labels:
[1] = test system: cancer stem cell-like stomach cancer cells derived from patients with relapse and metastasis after irinotecan administration, xenografted; assay: Tumor volume and weight in stomach cancer cell xenograft mouse
[2] = Body weight of colorectal cancer cell xenograft mice; format: in vivo, BALB/c nude female mouse; conditions: 41 days, compared with negative control, stated as no toxicity problem, FIG. 11
Description: (§1) After cancer stem cell-like colorectal cancer cells, which were derived from patients with relapse and metastasis after radiation therapy, were cultured in vitro, the cultured cells were injected subcutaneously into the upper left flank of a BALB/c nude female mouse to be 2.0×10^7 cells/mouse. […] The mice were anesthetized to measure a change in tumor volume daily using calipers for 40 days, and the result is shown in FIG. 9. The tumor volume was calculated by the above-described Equation 1. In addition, after 40 days, a tumor weight was measured, and the result is shown in FIG. 10, and for 41 days, the body weight of the mouse was measured, and the result is shown in FIG. 11.

[3] = test system: cancer stem cell-like colorectal cancer cells derived from patients with relapse and metastasis after radiation therapy; assay: Radiation treatment activity enhancement in radiation-resistant colorectal cancer cells (cell number); format: cell-based, human; conditions: compound (75 nM) and X-rays at 5 Gy; FIG. 8
Description: After cancer stem cell-like colorectal cancer cells derived from patients with relapse and metastasis after radiation therapy were treated with the compound of Preparation Example 1-1 (150 nM) only; Faxitron X-rays (Faxitron Bioptics, AZ, USA) at an intensity of 5 Gy (RT); or the compound of Preparation Example 1-1 (75 nM) and the X-rays at an intensity of 5 Gy, the change in number of cancer cells over treatment time was measured, and the result is shown in FIG. 8.

[4] = test system: cancer stem cell-like thyroid cancer cells derived from patients with relapse and metastasis after paclitaxel administration; assay: Paclitaxel activity enhancement in paclitaxel-resistant thyroid cancer cells (cell number, viability); format: cell-based, human
Description: After cancer stem cell-like thyroid cancer cells derived from patients with relapse and metastasis after paclitaxel administration (ATC) were treated with a compound of Preparation Example 1-1 (150 nM) only; paclitaxel (12 nM) only; or a combination of paclitaxel (5 nM) and a compound of Preparation Example 1-1 (70 nM), a change in number of cells over time was confirmed. In addition, a change in cell viability according to a treatment concentration of paclitaxel, the compound of Preparation Example 1-1, or the combination of paclitaxel and the compound of Preparation Example 1-1 is shown in FIG. 1. In addition, the change in cell viability according to the treatment concentration of paclitaxel, the compound of Preparation Example 1-1 and the combination thereof was measured, and the result is shown in FIG. 2.

[5] = Body weight of stomach cancer cell xenograft mice; conditions: 41 days, compared with negative control, stated as no toxicity problem, FIG. 7
[6] = test system: cancer stem cell-like stomach cancer cells derived from patients with relapse and metastasis after irinotecan administration; assay: Irinotecan activity enhancement in irinotecan-resistant stomach cancer cells (cell number); format: cell-based, human; conditions: FIG. 4
Description: After cancer stem cell-like stomach cancer cells derived from patients with relapse and metastasis after irinotecan administration were treated with the compound of Preparation Example 1-1 only (170 nM); irinotecan only (8.9 μM); or a combination of irinotecan (4.5 μM) and the compound of Preparation Example 1-1 (75 nM), a change in cell number over treatment time was measured, and the result is shown in FIG. 4.

[7] = test system: cancer stem cell-like thyroid cancer cells derived from patients with relapse and metastasis after paclitaxel administration, xenografted; assay: Tumor volume in thyroid cancer cell xenograft mouse; format: in vivo, BALB/c nude female mouse; conditions: 60 days, FIG. 3
Description: After cancer stem cell-like thyroid cancer cells derived from patients with relapse and metastasis after paclitaxel administration were cultured in vitro, the cultured cells were injected subcutaneously into the upper left flank of a BALB/c nude female mouse to be 2.0×10^7 cells/mouse. […] The mice were anesthetized to measure a change in tumor volume daily using calipers for 60 days, and the result is shown in FIG. 3. The tumor volume was evaluated using the following Equation 1. Tumor volume=L×S^2/2 [Equation 1] • (however, L is the longest diameter, and S is the shortest diameter)

[8] = test system: cancer stem cell-like colorectal cancer cells derived from patients with relapse and metastasis after radiation therapy, xenografted; assay: Tumor volume and weight in colorectal cancer cell xenograft mouse; format: in vivo, BALB/c nude female mouse; conditions: oral compound (27 mg/kg) and X-rays at 5 Gy
Description: as §1

[9] = test system: SKOV3-TR (paclitaxel-resistant epithelial ovarian cancer cell line); assay: Cell morphology and viability (ImageJ living cell count) in SKOV3-TR; format: cell-based; conditions: paclitaxel 5 μM; morphological analysis
Description: (§2) To confirm the anticancer therapeutic activity enhancing effects of the compounds of Preparation Examples, the compounds or salts prepared in Preparation Examples 1-1 to 31 (hereinafter, the compounds of Preparation Examples) were used, and cellular experiments were carried out with an epithelial ovarian cancer cell line SKOV3 and SKOV3-TR derived therefrom and produced as a resistant cell line having resistance to a paclitaxel anticancer agent. […]
(§3) For the morphological analysis of the cells, 24, 48 and 72 hours after paclitaxel treatment, images of cells treated with “None (untreated sample)”, “DMSO (paclitaxel solvent)”, “ethanol (solvent for the compounds of Preparation Examples)”, “paclitaxel”, “paclitaxel+ethanol”, and “paclitaxel+the compound of Preparation Example 1-2 (L19001)” were obtained. In addition, for the analysis of cell viability, 72 hours after treatment with paclitaxel or the compound of each Preparation Example only, or co-treatment with paclitaxel and the compound of each Preparation Example, the number of living cells was measured through Image J analysis.
(§4) The cell viability of the two types of cancer cell lines was analyzed by measuring the number of living cells using the ImageJ program.

[10] = test system: SKOV3 (epithelial ovarian cancer cell line); assay: Cell morphology and viability (ImageJ living cell count) in SKOV3; format: cell-based; conditions: paclitaxel 0.2 μM; morphological analysis
Description: as §2, §3, §4

## CCc1oc2ccccc2c1CN1CCN2C(=O)CNC(=O)C2C1 (centres unmarked) [Preparation Example 1-1, 2-((2-ethylbenzofuran-3-yl)methyl)hexahydro-2H-pyrazino[1,2-a]pyrazine-6,9-dione]
[1]; oral compound (32 mg/kg) and irinotecan (55 mg/kg), 40 days, FIG. 5
  tumor volume: remarkably decreased
[1]; oral compound (32 mg/kg) and irinotecan (55 mg/kg), after 40 days, FIG. 6
  tumor weight: remarkably decreased
[2]; oral compound (27 mg/kg) in combination with radiation therapy (5 Gy)
  change in body weight of the mouse: no change
[2]; oral compound (60 mg/kg) only
  change in body weight of the mouse: no change
[3]
  number of cancer cells: remarkably decreased
[4]; combination of paclitaxel (5 nM) and compound (70 nM), FIG. 1
  number of stem cell-like thyroid cancer cells: remarkably decreased
[4]; combination of paclitaxel and compound, FIG. 2
  cell viability of stem cell-like thyroid cancer cells: remarkably decreased
[5]; oral compound (32 mg/kg) in combination with irinotecan (55 mg/kg)
  change in body weight of the mouse: no change
[5]; oral compound (70 mg/kg) alone
  change in body weight of the mouse: no change
[6]; combination of irinotecan (4.5 μM) and compound (75 nM)
  number of cancer cells: remarkably decreased
[7]; oral compound (27 mg/kg) then intraperitoneal paclitaxel (11 mg/kg)
  tumor volume: remarkably decreased
[8]; 40 days, FIG. 9
  tumor volume: remarkably decreased
[8]; after 40 days, FIG. 10
  tumor weight: remarkably decreased

## CCc1c2c(nc3ccc(OC(=O)N4CCC(N5CCCCC5)CC4)cc13)-c1cc3c(c(=O)n1C2)COC(=O)[C@]3(O)CC [irinotecan, reference compound]
[1]; oral irinotecan (75 mg/kg) only, after 40 days, compared with negative control, FIG. 6
  change in tumor weight: no change
[6]; irinotecan only (8.9 μM), compared with negative control
  change in number of cancer cells: no change

## CC(=O)O[C@H]1C(=O)[C@@]2(C)[C@H]([C@H](OC(=O)c3ccccc3)[C@]3(O)C[C@H](OC(=O)[C@H](O)[C@@H](NC(=O)c4ccccc4)c4ccccc4)C(C)=C1C3(C)C)[C@]1(OC(C)=O)CO[C@@H]1C[C@@H]2O [paclitaxel, reference compound]
[9]
  number of living cells (induction of cell death and inhibition of cell growth): decrease
[4]; paclitaxel (12 nM) only, compared with negative control, FIG. 1
  change in cancer cell number: no change
[4]; paclitaxel only, compared with negative control, FIG. 2
  viability of cancer cells: no change
[7]; intraperitoneal paclitaxel (25 mg/kg) only, compared with negative control
  change in tumor volume: no change
[10]
  number of living cells (induction of cell death and inhibition of cell growth): decrease
